# Results: patent US20120183631A1, “INGREDIENT EXTRACTED FROM POUZOLZIA ZEYLANICA (L.) BENN AND ITS ANTI-ACNE FORMULA” (priority 2011, published 2012)
# Test system: endotoxin
# Assay type: cell-based
structure (smiles),measurement,value
COc1cc(/C=C/C(=O)CC(=O)/C=C/c2ccc(O)c(OC)c2)ccc1O [Curcumin],Inhibition of endotoxin (in words),not restrained
